Data set [1] has as its target T1, E. coli nitroreductase (Escherichia coli, UniProt P38489). Particulars: pH 7.
The test system of data set [2] is SKOV3 human ovarian carcinoma cells infected with adenovirus expressing E. coli nitroreductase (NR+). Put plainly: Cytotoxicity in SKOV3 cells infected with adenovirus expressing E. coli nitroreductase (NR+), MTT. It is filed as cell-based. The conditions noted are these: for IC50: adenovirus NR, 100 pfu/cell; for Ratio of IC50 values (NR−/NR+): SKOV3, 18 hour drug exposure.

The test system of a further data set is T116 cells. The data set is described as follows: cells. The format is cell-based, Chinese hamster.
The subject of another data set is hDT7 cells. Put plainly: cells. The format is cell-based, Chinese hamster. The conditions noted are these: read-out: IC50 hDT7.
For data set [3], the system named is SKOV3 human ovarian carcinoma cells not infected (NR−). The data set is described as follows: cells. It is filed as cell-based.
Data set [4] relates to F179 cells. Particulars: read-out: IC50 F179.
For data set [5], the target named is T1, E. coli nitroreductase. It is filed as biochemical.
The subject of data set [6] is F179 cells. Put plainly: cells. Particulars: Cricetulus griseus, read-out: IC50 F179.
The target of data set [7] is T1, E. coli nitroreductase. The data set is described as follows: in vitro. The conditions noted are these: pH 7.
The mark [8] stands for this setting: 18 hour drug exposure, read-out: IC50 in SKOV3 NR+.
Setting [9] is: 72 hours drug exposure, E. coli nitroreductase-expressing cells, read-out: IC50 T116.
Setting [10] is: 72 hours drug exposure, human NQO1-expressing cells.
Setting [11] is: 72 hours drug exposure, vector-only control cells.
The mark [12] stands for this setting: 18 hour drug exposure; uninfected cells; read-out: IC50 in SKOV3 NR−.
Setting [13] is: 200 μM compound, 1 mM NADH, 1.8 μg E. coli nitroreductase, 10 mM phosphate buffer pH 7.0, 37° C., 250 μL, UV 340 nm.
Where [14] appears, read: Homo sapiens, SK-OV-3, 18 h, read-out: IC50 in SKOV3 NR+, 18 hour drug exposure.
Where [15] appears, read: Homo sapiens, SK-OV-3, 18 h, read-out: IC50 in SKOV3 NR−.
The mark [16] stands for this setting: Cricetulus griseus, V79, 72 h, read-out: IC50 T116.
[17] abbreviates: read-out: IC50 in SKOV3 NR+, 18 hour drug exposure.

Values joined by “and” are separate entries in the source; they are usually repeats but may differ in a detail not shown here. Equal entries are not always repeated. Where two headings read alike, the source gives them in different places.

T1 sequence (P38489 whole entry): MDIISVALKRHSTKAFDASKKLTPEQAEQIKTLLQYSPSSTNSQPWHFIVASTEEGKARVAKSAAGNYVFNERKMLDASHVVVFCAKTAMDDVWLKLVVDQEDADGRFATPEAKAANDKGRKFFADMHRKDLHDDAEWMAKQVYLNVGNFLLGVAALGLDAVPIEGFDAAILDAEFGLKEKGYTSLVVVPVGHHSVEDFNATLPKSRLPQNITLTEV

For the compound `O=[N+]([O-])c1ccc([C@H]2CCO[P@@](=O)(N(CCCl)CCCl)N2)cc1` [trans-13b, 2-[Bis(2-chloroethyl)amino]-4-(p-nitrophenyl)-2H-1,3,2-oxazaphosphorinane 2-oxide], the “NR assay t1/2 (half-life of reduction by E. coli nitroreductase)” value at E. coli nitroreductase [1] was 2.9 min. Also, the IC50 – broadly, the concentration that gives 50% inhibition – in data set [2] (setting [8]) is 250 µM; in the data set with T116 cells (setting [9]), 51500 nM; in the data set with hDT7 cells (setting [10]), over 100 µM; in data set [3] (read-out: IC50 in SKOV3 NR−), 820 µM; with F179 cells [4] (setting [11]), over 100 µM. The “Ratio of IC50 values (NR−/NR+)” value in data set [2] is reported as 3.3. Also, the “Ratio of IC50 values (F179/T116)” value in the data set on T116 cells was over 1.9.

For `O=[N+]([O-])c1ccc([C@@H]2CCN[P@](=O)(N(CCCl)CCCl)O2)cc1` [trans-13c, 2-[Bis(2-chloroethyl)amino]-6-(p-nitrophenyl)-2H-1,3,2-oxazaphosphorinane 2-oxide], on E. coli nitroreductase [1], the “NR assay t1/2 (half-life of reduction by E. coli nitroreductase)” value was 3.9 min. Also, the IC50 in data set [2] (setting [8]) was 5 µM; in the data set with T116 cells (1 hour drug exposure, read-out: IC50 T116) it was 166 nM; in the data set with T116 cells (setting [9]), 27 nM; in the data set on hDT7 cells (setting [10]), over 100 µM; in [3] (read-out: IC50 in SKOV3 NR−), over 1000 µM; in the data set with F179 cells [4] (1 hour drug exposure), over 100 µM. In addition, the “Ratio of IC50 values (NR−/NR+)” value in data set [2] is listed as over 200. For the same compound, the “Ratio of IC50 values (F179/T116)” value is recorded as 22,519 in the data set with T116 cells and over 602 in the data set on T116 cells (1 hour drug exposure). Besides, the “NR Assay vi (initial velocity)” value at E. coli nitroreductase [5] (pH 7) came out at 3.54 nmol/min.

Turning to `COC(=O)c1cc(COP(N)(=O)N(CCCl)CCCl)ccc1[N+](=O)[O-]` (stereo not drawn) [Compound 15f, 3-methoxycarbonyl-4-nitrobenzyl N,N-bis(2-chloroethyl) phosphordiamidate], the IC50 in data set [2] (setting [8]) turned out to be 2.1 µM; in data set [3] (setting [12]), 400 µM. Also, the “Ratio of IC50 values (NR−/NR+)” value in data set [2] is recorded as 190. The “NR Assay vi (initial velocity)” value at E. coli nitroreductase [5] (setting [13]) worked out at 0.30 nmol/min.

Consider `NC(=O)c1cc(COP(N)(=O)N(CCCl)CCCl)ccc1[N+](=O)[O-]` (stereo not drawn) [Compound 15e, 3-carboxamide-4-nitrobenzyl N,N-bis(2-chloroethyl)phosphordiamidate], for which the IC50 in data set [2] (setting [8]) was 41 µM; in data set [3] (setting [12]), over 1000 µM. Also, the “Ratio of IC50 values (NR−/NR+)” value in [2] is given as over 24. Also, the “NR Assay vi (initial velocity)” value on E. coli nitroreductase [5] (setting [13]) is 0.38 nmol/min.

Take `COc1cc(COP(N)(=O)N(CCCl)CCCl)ccc1[N+](=O)[O-]` (stereo not drawn) [Compound 15h, 3-methoxy-4-nitrobenzyl N,N-bis(2-chloroethyl)phosphordiamidate]: the IC50 stood at 3.1 µM in data set [2] (setting [14]) and 910 µM in data set [3] (setting [15]). Moreover, the “Ratio of IC50 values (NR−/NR+)” value in data set [2] was 294. The “NR Assay vi (initial velocity)” value at E. coli nitroreductase [5] (setting [13]) is 4.40 nmol/min.

`COc1cc([N+](=O)[O-])ccc1COP(N)(=O)N(CCCl)CCCl` (stereo not drawn) [Compound 15i, 2-methoxy-4-nitrobenzyl N,N-bis(2-chloroethyl)phosphordiamidate]: the IC50 in data set [2] (setting [14]) was 1.8 µM; in data set [3] (setting [15]), over 1000 µM. Also, the “Ratio of IC50 values (NR−/NR+)” value in data set [2] is over 556. Also, the “NR Assay vi (initial velocity)” value on E. coli nitroreductase [5] (setting [13]) turned out to be 12.56 nmol/min.

Regarding `O=[N+]([O-])c1ccc([C@H]2CCN[P@@](=O)(N(CCCl)CCCl)N2)cc1` [trans-13d, 2-[Bis(2-chloroethyl)amino]-4-(p-nitrophenyl)-2H-1,3,2-diazaphosphorinane 2-oxide], on E. coli nitroreductase [1], the “NR assay t1/2 (half-life of reduction by E. coli nitroreductase)” value was 4.2 min. For the same compound, the “Ratio of IC50 values (F179/T116)” value with T116 cells is on record as over 2.1. For the same compound, the IC50 was 48300 nM with T116 cells (setting [9]), over 100 µM in the data set with hDT7 cells (setting [10]) and over 100 µM with F179 cells [4] (setting [11]).

Turning to `O=[N+]([O-])c1ccc([C@@H]2CCN[P@](=O)(N(CCCl)CCCl)O2)cc1` [cis-13c, 2-[Bis(2-chloroethyl)amino]-6-(p-nitrophenyl)-2H-1,3,2-oxazaphosphorinane 2-oxide], the “NR assay t1/2 (half-life of reduction by E. coli nitroreductase)” value at E. coli nitroreductase [1] turned out to be 5.2 min. Also, the IC50 in data set [2] (setting [8]) was 4.5 µM; with hDT7 cells, over 100 µM; in data set [3] (setting [12]), 680 µM. The “Ratio of IC50 values (NR−/NR+)” value in [2] worked out at 151. Besides, the “NR Assay vi (initial velocity)” value at E. coli nitroreductase [5] (setting [13]) was 2.33 nmol/min.

With `Cc1cc(COP(N)(=O)N(CCCl)CCCl)ccc1[N+](=O)[O-]` (stereo not drawn) [Compound 15g, 3-methyl-4-nitrobenzyl N,N-bis(2-chloroethyl)phosphordiamidate], the IC50 worked out at 3.3 µM in data set [2] (setting [14]) and 510 µM in [3] (setting [15]). For the same compound, the “Ratio of IC50 values (NR−/NR+)” value in data set [2] is recorded as 155. Further, at E. coli nitroreductase [5] (setting [13]), the “NR Assay vi (initial velocity)” value turned out to be 1.61 nmol/min.

`NP(=O)(OCc1cccc([N+](=O)[O-])c1)N(CCCl)CCCl` (stereo not drawn) [Compound 15b, 3-nitrobenzyl N,N-bis(2-chloroethyl)phosphordiamidate]: the IC50 in [2] (setting [14]) came to 240 µM; in [3] (setting [15]) it was 820 µM. Further, the “Ratio of IC50 values (NR−/NR+)” value in [2] turned out to be 3.4. For the same compound, on E. coli nitroreductase [5] (setting [13]), the “NR Assay vi (initial velocity)” value stood at 1.23 nmol/min.

Regarding `NP(=O)(OCc1ccc([N+](=O)[O-])cc1)N(CCCl)CCCl` (stereo not drawn) [Compound 15c, 4-nitrobenzyl N,N-bis(2-chloroethyl)phosphordiamidate], the IC50 in data set [2] (setting [14]) stood at 1.1 µM; with T116 cells (Cricetulus griseus, V79, 1 h, read-out: IC50 T116), 10 nM; in the data set on T116 cells (Cricetulus griseus, V79, 1 h, read-out: IC50 in E. coli nitroreductase-expressing T116 cells), 10 nM; in the data set with T116 cells (setting [16]), 3 nM; with T116 cells (Cricetulus griseus, V79, 72 h, read-out: IC50 in E. coli nitroreductase-expressing T116 cells), 3 nM; with hDT7 cells (Cricetulus griseus, V79, 72 h), 27 µM. Also, the IC50 was over 100 µM with F179 cells [6] (1 h), 62.5 µM in the data set with F179 cells [6] (72 h) and over 1000 µM in data set [3] (setting [15]). In data set [2], the “Ratio of IC50 values (NR−/NR+)” value was over 909. Moreover, the “Ratio of IC50 values (F179/T116)” value with T116 cells is 20,833 and >10,000. Besides, the “NR Assay vi (initial velocity)” value on E. coli nitroreductase [5] (setting [13]) was 2.31 nmol/min.

For the compound `CC(OP(N)(=O)N(CCCl)CCCl)c1ccc([N+](=O)[O-])cc1` (single isomer, unassigned) [Compound 15d-A, 1-(4-nitrophenyl)ethyl N,N-bis(2-chloroethyl)phosphordiamidate], in data set [2], the “Ratio of IC50 values (NR−/NR+)” value is given as over 556. Besides, the IC50 in data set [2] (setting [17]) was 1.8 µM; in data set [3] (setting [15]) it was over 1000 µM. In addition, the “NR Assay vi (initial velocity)” value at E. coli nitroreductase [5] (setting [13]) is 2.53 nmol/min.

`O=[N+]([O-])c1ccc([C@H]2CCO[P@@](=O)(N(CCCl)CCCl)N2)cc1` [cis-13b, 2-[Bis(2-chloroethyl)amino]-4-(p-nitrophenyl)-2H-1,3,2-oxazaphosphorinane 2-oxide]: the “NR assay t1/2 (half-life of reduction by E. coli nitroreductase)” value at E. coli nitroreductase [1] came to 11.9 min. For the same compound, the IC50 is 510 µM in data set [2] (setting [8]); 45300 nM in the data set on T116 cells (read-out: IC50 T116); over 100 µM with hDT7 cells; over 1000 µM in data set [3] (setting [12]); over 100 µM in the data set with F179 cells [4]. Besides, in data set [2], the “Ratio of IC50 values (NR−/NR+)” value is over 2. The “Ratio of IC50 values (F179/T116)” value in the data set on T116 cells was over 2.2.

On to `CC(OP(N)(=O)N(CCCl)CCCl)c1ccc([N+](=O)[O-])cc1` (single isomer, unassigned) [Compound 15d-B, 1-(4-nitrophenyl)ethyl N,N-bis(2-chloroethyl)phosphordiamidate], for which the “Ratio of IC50 values (NR−/NR+)” value in data set [2] is over 250. The results for the half-inhibitory concentration (IC50) in data set [2] (setting [17]) and in data set [3] (read-out: IC50 in SKOV3 NR−; 18 hour drug exposure; uninfected cells) were 4 µM and over 1000 µM, respectively. Moreover, on E. coli nitroreductase [5] (setting [13]), the “NR Assay vi (initial velocity)” value came to 1.65 nmol/min.

Regarding `O=[N+]([O-])c1ccc([C@H]2CCN[P@@](=O)(N(CCCl)CCCl)N2)cc1` [cis-13d, 2-[Bis(2-chloroethyl)amino]-4-(p-nitrophenyl)-2H-1,3,2-diazaphosphorinane 2-oxide], on E. coli nitroreductase [1], the “NR assay t1/2 (half-life of reduction by E. coli nitroreductase)” value is 6.4 min. Further, the “Ratio of IC50 values (F179/T116)” value with T116 cells was determined as 12.3. In addition, the IC50 with T116 cells (read-out: IC50 T116) amounted to 4600 nM; in the data set on hDT7 cells it was 46.8 µM; with F179 cells [4] it was 56.8 µM.

Consider `O=[N+]([O-])c1ccc2c(c1)NP(=O)(N(CCCl)CCCl)NC2` (stereo not drawn) [Compound 9d, 7-Nitro-2-[bis(2-chloroethyl)amino]-1,3,2-benzodiazaphosphorinane-2-oxide], for which the “Ratio of IC50 values (F179/T116)” value with T116 cells was “˜1”. Further, the IC50 was over 100000 nM in the data set on T116 cells (setting [16]); over 100 µM in the data set on hDT7 cells (Cricetulus griseus, V79, 72 h); over 100 µM in the data set on F179 cells [6] (72 h). Also, the half-life – broadly, the time needed for the level to fall by half in the phase considered – at E. coli nitroreductase [7] was determined as 7.8 min.

For `NP(=O)(OCc1ccccc1[N+](=O)[O-])N(CCCl)CCCl` (stereo not drawn) [Compound 15a, 2-nitrobenzyl N,N-bis(2-chloroethyl)phosphordiamidate], the values for the IC50 in data set [2] (setting [14]) and in data set [3] (setting [15]) were 90 µM and 950 µM, respectively. Also, in data set [2], the “Ratio of IC50 values (NR−/NR+)” value is 11. Further, the “NR Assay vi (initial velocity)” value at E. coli nitroreductase [5] (setting [13]) is 0.46 nmol/min.

For the origin of these results see patent US20040214798A1 (priority 2003, published 2004).
